How the values were obtained:
[1] = test system: brain; experiment: Matured TTM-001 and TTM-002 variants, NGS enrichment in mouse brain; type: in vivo, mice; settings: relative to AAV9 control
[2] = test system: brains, heart, liver, muscle, and DRG of the NHPs; experiment: Maturation of TTM-001 and TTM-002 capsids, NGS enrichment in NHP tissues; type: in vivo; settings: relative to AAV9 control
How it was run: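 Variants carry mutations within and flanking the loop IV peptide insert: positions 450–466 were triplet-randomized, while positions 449–466 received low-frequency point mutations. The combined pool went into two NHPs, and each peptide was scored by NGS enrichment ratio against AAV9.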

[3] = NGS fold-enrichment, brain of mice
[4] = NGS fold-enrichment, DRG of NHPs
[5] = NGS fold-enrichment, RNA, brain of NHPs
[6] = NGS fold-enrichment, heart of NHPs
[7] = NGS fold-enrichment, liver DNA of NHPs
[8] = NGS fold-enrichment, liver RNA of NHPs
[9] = NGS fold-enrichment, muscle of NHPs
[10] = NGS fold-enrichment of matured AAV capsid variants, NHP brain, RNA
[11] = NGS fold-enrichment, mouse brain
[12] = NGS fold-enrichment of RNA, NHP brain
[13] = NGS fold-enrichment, NHP liver DNA
[14] = NGS fold-enrichment, NHP liver RNA
[15] = NGS fold-enrichment, NHP muscle

Sequence	Fold Enrichment relative to AAV9, Brain (Mouse) [1, 3]	Fold Enrichment relative to AAV9, DRG (NHP) [2, 4]	Fold Enrichment relative to AAV9, Brain (NHP) [2, 5]	Fold Enrichment relative to AAV9, Heart (NHP) [2, 6]	Fold Enrichment relative to AAV9, Liver DNA (NHP) [2, 7]	Fold Enrichment relative to AAV9, Liver RNA (NHP) [2, 8]	Fold Enrichment relative to AAV9, Muscle (NHP) [2, 9]	Fold Enrichment relative to AAV9, Brain (Mouse) [1, 11]	Fold Enrichment relative to AAV9, Brain (NHP) [2, 12]	Fold Enrichment relative to AAV9, DRG (NHP) ([2]; NGS fold-enrichment, NHP DRG)	Fold Enrichment relative to AAV9, Heart (NHP) ([2]; NGS fold-enrichment, NHP heart)	Fold Enrichment relative to AAV9, Liver DNA (NHP) [2, 13]	Fold Enrichment relative to AAV9, Liver RNA (NHP) [2, 14]	Fold Enrichment relative to AAV9, Muscle (NHP) [2, 15]	further results
KTINGGGSPHSKAQNPPT	64.045 fold	0.000 fold	63.041 fold	0.082 fold	0.057 fold	0.000 fold	0.000 fold	–	–	–	–	–	–	–	–
KTINGGGSPHSKAQNPQA	–	–	–	–	–	–	–	–	–	–	–	–	–	–	Fold Enrichment relative to AAV9, Brain (Mouse) ([1]; mouse brain): 102.792 fold; Fold Enrichment relative to AAV9, Brain (NHP) [2, 10]: 51.574 fold; Fold Enrichment relative to AAV9, DRG (NHP) ([2]; NHP DRG): 0.000 fold; Fold Enrichment relative to AAV9, Heart (NHP) ([2]; NHP heart): 0.000 fold; Fold Enrichment relative to AAV9, Liver DNA (NHP) ([2]; NHP liver, DNA): 0.000 fold; Fold Enrichment relative to AAV9, Liver RNA (NHP) ([2]; NHP liver, RNA): 0.192 fold; Fold Enrichment relative to AAV9, Muscle (NHP) ([2]; NHP muscle): 0.000 fold
KTINGGGSPHSKAQNQLI	78.383 fold	0.000 fold	83.881 fold	0.000 fold	0.387 fold	0.046 fold	0.000 fold	78.383 fold	83.881 fold	0.000 fold	0.000 fold	0.387 fold	0.046 fold	0.000 fold	–
KTINGGGSPHSKAQNQMT	–	–	–	–	–	–	–	–	–	–	–	–	–	–	Fold Enrichment relative to AAV9, Brain (Mouse) ([1]; mouse brain): 73.177 fold; Fold Enrichment relative to AAV9, Brain (NHP) [2, 10]: 55.778 fold; Fold Enrichment relative to AAV9, DRG (NHP) ([2]; NHP DRG): 0.000 fold; Fold Enrichment relative to AAV9, Heart (NHP) ([2]; NHP heart): 0.000 fold; Fold Enrichment relative to AAV9, Liver DNA (NHP) ([2]; NHP liver, DNA): 0.012 fold; Fold Enrichment relative to AAV9, Liver RNA (NHP) ([2]; NHP liver, RNA): 0.866 fold; Fold Enrichment relative to AAV9, Muscle (NHP) ([2]; NHP muscle): 0.000 fold
KTINGGGSPHSKAQNQQC	53.840 fold	0.219 fold	89.301 fold	0.000 fold	0.319 fold	0.287 fold	0.000 fold	53.840 fold	89.301 fold	0.219 fold	0.000 fold	0.319 fold	0.287 fold	0.000 fold	–
KTINGGGSPHSKAQRQQT	–	–	–	–	–	–	–	–	–	–	–	–	–	–	Fold Enrichment relative to AAV9, Brain (Mouse) ([1]; mouse brain): 147.942 fold; Fold Enrichment relative to AAV9, Brain (NHP) [2, 10]: 50.998 fold; Fold Enrichment relative to AAV9, DRG (NHP) ([2]; NHP DRG): 0.000 fold; Fold Enrichment relative to AAV9, Heart (NHP) ([2]; NHP heart): 0.041 fold; Fold Enrichment relative to AAV9, Liver DNA (NHP) ([2]; NHP liver, DNA): 0.142 fold; Fold Enrichment relative to AAV9, Liver RNA (NHP) ([2]; NHP liver, RNA): 0.991 fold; Fold Enrichment relative to AAV9, Muscle (NHP) ([2]; NHP muscle): 0.000 fold
KTINGGGSPHSKAQSQQI	67.651 fold	0.000 fold	74.264 fold	0.000 fold	0.235 fold	0.000 fold	0.000 fold	–	–	–	–	–	–	–	–
KTINGGGSPHSKAQTQQI	54.199 fold	0.000 fold	92.345 fold	0.000 fold	0.023 fold	0.000 fold	0.000 fold	54.199 fold	92.345 fold	0.000 fold	0.000 fold	0.023 fold	0.000 fold	0.000 fold	–
KTINGGGSPHSKAQYQHT	–	–	–	–	–	–	–	–	–	–	–	–	–	–	Fold Enrichment relative to AAV9, Brain (Mouse) ([1]; mouse brain): 82.256 fold; Fold Enrichment relative to AAV9, Brain (NHP) [2, 10]: 54.188 fold; Fold Enrichment relative to AAV9, DRG (NHP) ([2]; NHP DRG): 0.000 fold; Fold Enrichment relative to AAV9, Heart (NHP) ([2]; NHP heart): 0.000 fold; Fold Enrichment relative to AAV9, Liver DNA (NHP) ([2]; NHP liver, DNA): 0.223 fold; Fold Enrichment relative to AAV9, Liver RNA (NHP) ([2]; NHP liver, RNA): 0.000 fold; Fold Enrichment relative to AAV9, Muscle (NHP) ([2]; NHP muscle): 0.000 fold
KTINGGGSPHSKSQNQHT	100.748 fold	0.000 fold	67.773 fold	0.057 fold	0.220 fold	0.000 fold	0.000 fold	–	–	–	–	–	–	–	–
KTINGGGSPHSKSQNQLT	126.986 fold	0.000 fold	82.231 fold	0.070 fold	0.498 fold	0.000 fold	0.000 fold	126.986 fold	82.231 fold	0.000 fold	0.070 fold	0.498 fold	0.000 fold	0.000 fold	–
KTINGGGSPHSKSQNRQT	–	–	–	–	–	–	–	–	–	–	–	–	–	–	Fold Enrichment relative to AAV9, Brain (Mouse) ([1]; mouse brain): 149.370 fold; Fold Enrichment relative to AAV9, Brain (NHP) [2, 10]: 51.017 fold; Fold Enrichment relative to AAV9, DRG (NHP) ([2]; NHP DRG): 0.000 fold; Fold Enrichment relative to AAV9, Heart (NHP) ([2]; NHP heart): 0.000 fold; Fold Enrichment relative to AAV9, Liver DNA (NHP) ([2]; NHP liver, DNA): 0.421 fold; Fold Enrichment relative to AAV9, Liver RNA (NHP) ([2]; NHP liver, RNA): 0.000 fold; Fold Enrichment relative to AAV9, Muscle (NHP) ([2]; NHP muscle): 0.000 fold
KTINGHDSPHKIGLDQQT	–	–	–	–	–	–	–	5.469 fold	165.627 fold	0.000 fold	0.000 fold	0.000 fold	1.942 fold	0.000 fold	–
KTINGHDSPHKIGQNQHA	–	–	–	–	–	–	–	7.578 fold	77.321 fold	0.000 fold	18.836 fold	0.132 fold	0.220 fold	0.028 fold	–
KTINGHDSPHKSAQNYQT	–	–	–	–	–	–	–	19.443 fold	130.375 fold	0.000 fold	0.124 fold	0.123 fold	0.097 fold	0.000 fold	–
KTINGHDSPHKSGQLVIT	–	–	–	–	–	–	–	11.323 fold	76.781 fold	0.089 fold	0.064 fold	0.475 fold	0.338 fold	0.000 fold	–
KTINGHDSPHKSGQNKLE	–	–	–	–	–	–	–	12.419 fold	76.204 fold	0.000 fold	1.430 fold	0.031 fold	0.015 fold	0.000 fold	–
KTINGHDSPHKSGQSKQA	–	–	–	–	–	–	–	7.510 fold	101.460 fold	0.000 fold	0.222 fold	0.114 fold	0.185 fold	0.000 fold	–
KTINGHDSPHKSGQSVPT	–	–	–	–	–	–	–	6.768 fold	77.840 fold	0.000 fold	0.003 fold	0.061 fold	0.136 fold	0.000 fold	–
KTINGHDSPHKSGQSVQT	–	–	–	–	–	–	–	9.321 fold	75.748 fold	0.010 fold	6.808 fold	0.058 fold	0.165 fold	0.000 fold	–

From patent US20260250318A1, “COMPOSITIONS AND METHODS FOR CROSSING THE BLOOD BRAIN BARRIER” (VOYAGER THERAPEUTICS, INC., priority 2022, published 2026)
